As a reminder, the IC50 is the point on the concentration scale where inhibition reaches its midpoint. Low readings indicate greater potency, high ones weaker potency.

Assay [1] in a line: Potency differential in resistant to that of sensitive A2780CIS cell line. In kind it is functional.
Assay [2] relates to A2780. As to the kind of experiment: In vitro cytotoxicity against A2780ADR cell line. The note with it: Homo sapiens.
Assay [3] in a line: Potency differential in resistant to that of sensitive A2780TAX cell line. In kind it is functional.
The test system of assay [4] is MCF7. Kind of assay: In vitro cytotoxicity against MCF-7 cell line. In kind it is functional, cell-based. The note with it: Homo sapiens.
Assay [5] is described as follows: (§1) Potency differential in resistant to that of sensitive MCF7-R cell line. In kind it is functional.
Assay [6] in a line: Potency differential in resistant to that of sensitive A2780ADR cell line. In kind it is functional, A2780 ADR.
The test system of assay [7] is A2780. Kind of assay: In vitro cytotoxicity against A2780 cell line. The note with it: Homo sapiens.
Assay [8] concerns A2780. As to the kind of experiment: In vitro cytotoxicity against A2780CIS cell line. The note with it: Homo sapiens.
Assay [9] has as its system MCF7R. Kind of assay: In vitro cytotoxicity against MCF7-R cell line. The note with it: Homo sapiens. In kind it is functional, cell-based.
Assay [10] deals with A2780. Kind of assay: In vitro cytotoxicity against A2780TAX cell line. The note with it: Homo sapiens.
In assay [11] the test system is MCF7R. The description is as §1. The note with it: Homo sapiens. In kind it is functional, cell-based.

Turning to `CC(=O)O[C@H]1C(=O)[C@@]2(C)[C@H]([C@H](OC(=O)c3ccccc3)[C@]34OC(=O)O[C@H]3[C@H](OC(=O)[C@](C)(O)[C@@H](NC(=O)OC(C)(C)C)c3ccco3)C(C)=C1C4(C)C)[C@]1(OC(C)=O)CO[C@@H]1C[C@@H]2O`, the Ratio in assay [1] was 0.4; in [3], 5; in [5], 9.4; in assay [6], 4. Further, the IC50 was 27.1 nM in assay [2]; 1.7 nM in assay [4]; 5.9 nM in [7]; 2.5 nM in assay [8]; 16 nM in [9]; 30.9 nM in assay [10].
`CC(=O)O[C@H]1C(=O)[C@@]2(C)[C@H]([C@H](OC(=O)c3ccccc3)[C@]34OC(=O)O[C@H]3[C@H](OC(=O)[C@](C)(O)[C@@H](NC(=O)OC(C)(C)C)c3ccccc3)C(C)=C1C4(C)C)[C@]1(OC(C)=O)CO[C@@H]1C[C@@H]2O`: the Ratio is recorded as 0.7 in assay [1], 118 in [3] and 21 in [6]. For the same molecule, the IC50 in [2] is 52.9 nM; in [7], 2.5 nM; in assay [8] it was 1.7 nM; in [10] it was 299 nM.
`CC(=O)O[C@H]1C(=O)[C@@]2(C)[C@H]([C@H](OC(=O)c3ccccc3)[C@]3(O)C[C@H](OC(=O)[C@](C)(O)[C@@H](NC(=O)c4ccccc4)c4ccco4)C(C)=C1C3(C)C)[C@]1(OC(C)=O)CO[C@@H]1C[C@@H]2O`: the Ratio is on record as 0.9 in assay [1], 135 in [3] and 20 in assay [6]. Also, the IC50 in assay [2] amounted to 61.4 nM; in assay [7] it was 3.1 nM; in [8], 2.9 nM; in assay [10], 420 nM.
For `CC(=O)O[C@H]1C(=O)[C@@]2(C)[C@H]([C@H](OC(=O)c3ccccc3)[C@]3(O)C[C@H](OC(=O)[C@](C)(O)[C@@H](NC(=O)OC(C)(C)C)c4ccco4)C(C)=C1C3(C)C)[C@]1(OC(C)=O)CO[C@@H]1C[C@@H]2O`, the results for the Ratio in assay [1], in assay [3] and in assay [6] were 1.1, 107 and 14, respectively. The IC50 in assay [2] came out at 41.3 nM; in [7], 2.9 nM; in [8] it was 3.3 nM; in [10] it was 312 nM.
In the case of `CC(=O)O[C@H]1C(=O)[C@@]2(C)[C@H]([C@H](OC(=O)c3ccccc3)[C@]34OC(=O)O[C@H]3[C@H](OC(=O)[C@](C)(O)[C@@H](NC(=O)OC(C)(C)C)C(F)(F)F)C(C)=C1C4(C)C)[C@]1(OC(C)=O)CO[C@@H]1C[C@@H]2O`, the Ratio came to 0.6 in assay [1], 61 in [3] and 17 in assay [6]. Moreover, the half-maximal inhibitory concentration (IC50) was 79.3 nM in [2], 4.6 nM in [7], 2.8 nM in [8] and 285 nM in assay [10].
Take `CC(=O)O[C@H]1C(=O)[C@@]2(C)[C@H]([C@H](OC(=O)c3ccccc3)[C@]34OC(=O)O[C@H]3[C@H](OC(=O)[C@H](O)[C@H](CC(C)C)NC(=O)OC(C)(C)C)C(C)=C1C4(C)C)[C@]1(OC(C)=O)CO[C@@H]1C[C@@H]2O` [ORTATAXEL]: the Ratio was 0.7 in assay [1], 12 in assay [3], 33 in [11] and 13 in [6]. The concentration for half-maximal inhibition (IC50) in [2] was 63 nM; in assay [4], 1.1 nM; in assay [7] it was 4.8 nM; in assay [8] it was 3.6 nM; in assay [9] it was 36 nM; in assay [10] it was 56 nM.

(Values after ChEMBL document CHEMBL1145750, “Synthesis and biological evaluation of 2'-methyl taxoids derived from baccatin III and 14beta-OH-baccatin III 1,14-carbonate” (J Med Chem, 2003).)
